# From the supplement of paper PMC11061612
# Legend:
# SG3199 = compound: CC1=CN2[C@@H](C1)C=NC3=CC(=C(C=C3C2=O)OC)OCCCCCOC4=C(C=C5C(=C4)N=C[C@@H]6CC(=CN6C5=O)C)OC [SG3199]; conditions: max 0.001 µM
# Procedure, shortened: (§1)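 Cancer cell lines were seeded into 1536-well plates in 7.5 μl medium (DMEM/F12 or RPMI, 10% FBS), held 24 hours at 37°C and 5% CO2, and dosed for 72 hours with final DMSO typically 0.2%. Luminescence from CellTiter-Glo 2.0, scaled between blank-well and DMSO-well means, served as viability. The single-agent IC50 was obtained from dose-response fits with a non-linear mixed effects model, each fit being a two-parameter logistic curve.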
# Palbociclib = compound: CC(=O)c1c(C)c2cnc(Nc3ccc(N4CCNCC4)cn3)nc2n(C2CCCC2)c1=O [Palbociclib]; conditions: max 10 µM
# Procedure, shortened: as §1
# AZD6738 = compound: C[C@@H]1COCCN1C2=NC(=NC(=C2)C3(CC3)[S@](=N)(=O)C)C4=C5C=CNC5=NC=C4 [AZD6738]; conditions: max 10 µM
# Procedure, shortened: as §1
# AZD5991 = compound: Cc1c2c(nn1C)CSCc1cc(n(C)n1)CSc1cc(c3ccccc3c1)OCCCc1c(C(=O)O)n(C)c3c-2c(Cl)ccc13 [AZD5991]; conditions: max 1 µM
# Procedure, shortened: as §1
# AZD4320 = compound: CN(CC[C@H](CSC1=CC=CC=C1)NC2=C(C=C(C=C2)S(=O)(=O)NC(=O)C3=CC=C(C=C3)N4CCC(CC4)[C@H](C5=CC=CC=C5C6=CC=C(C=C6)Cl)O)S(=O)(=O)C(F)(F)F)CCO [AZD4320]; conditions: max 1 µM
# Procedure, shortened: as §1
# Gefitinib = compound: COc1cc2ncnc(Nc3ccc(F)c(Cl)c3)c2cc1OCCCN1CCOCC1 [Gefitinib]; conditions: max 10 µM
# Procedure, shortened: as §1
# Dasatinib = compound: CC1=C(C(=CC=C1)Cl)NC(=O)C2=CN=C(S2)NC3=CC(=NC(=N3)C)N4CCN(CC4)CCO [Dasatinib]; conditions: max 2 µM
# Procedure, shortened: as §1
# AZD1390 = compound: CC(C)n1c(=O)n(C)c2cnc3cc(F)c(-c4ccc(OCCCN5CCCCC5)nc4)cc3c21 [AZD1390]; conditions: max 0.3 µM
# Procedure, shortened: as §1
# AZD5153 = compound: COc1nnc2ccc(N3CCC(c4ccc(OCCN5CCN(C)C(=O)[C@H]5C)cc4)CC3)nn12 [AZD5153]; conditions: max 1 µM
# Procedure, shortened: as §1
# MK-2206 = compound: NC1(c2ccc(-c3nc4ccn5c(=O)[nH]nc5c4cc3-c3ccccc3)cc2)CCC1 [MK-2206]; conditions: max 10 µM
# Procedure, shortened: as §1
# Doxorubicin = compound: COc1cccc2c1C(=O)c1c(O)c3c(c(O)c1C2=O)C[C@@](O)(C(=O)CO)C[C@@H]3O[C@H]1C[C@H](N)[C@H](O)[C@H](C)O1 [Doxorubicin]; conditions: max 1 µM
# Procedure, shortened: as §1
# Taselisib = compound: Cc1nc(-c2cn3c(n2)-c2ccc(-c4cnn(C(C)(C)C(N)=O)c4)cc2OCC3)n(C(C)C)n1 [Taselisib]; conditions: max 10 µM
# Procedure, shortened: as §1
# Selumetinib = compound: Cn1cnc2c(F)c(Nc3ccc(Br)cc3Cl)c(C(=O)NOCCO)cc21 [Selumetinib]; conditions: max 10 µM
# Procedure, shortened: as §1
# Venetoclax = compound: CC1(C)CCC(CN2CCN(c3ccc(C(=O)NS(=O)(=O)c4ccc(NCC5CCOCC5)c([N+](=O)[O-])c4)c(Oc4cnc5[nH]ccc5c4)c3)CC2)=C(c2ccc(Cl)cc2)C1 [Venetoclax]; conditions: max 1 µM
# Procedure, shortened: as §1
# AZD7648 = compound: Cc1cc2ncnn2cc1Nc1ncc2c(n1)n(C1CCOCC1)c(=O)n2C [AZD7648]; conditions: max 10 µM
# Procedure, shortened: as §1
# Capivasertib = compound: C1CN(CCC1(C(=O)N[C@@H](CCO)C2=CC=C(C=C2)Cl)N)C3=NC=NC4=C3C=CN4 [Capivasertib]; conditions: max 10 µM
# Procedure, shortened: as §1
# Trametinib = compound: CC(=O)Nc1cccc(-n2c(=O)n(C3CC3)c(=O)c3c(Nc4ccc(I)cc4F)n(C)c(=O)c(C)c32)c1 [Trametinib]; conditions: max 1 µM
# Procedure, shortened: as §1
# Prexasertib = compound: COc1cccc(OCCCN)c1-c1cc(Nc2cnc(C#N)cn2)n[nH]1 [Prexasertib]; conditions: max 1 µM
# Procedure, shortened: as §1
# Savolitinib = compound: C[C@@H](c1ccc2nccn2c1)n1nnc2ncc(-c3cnn(C)c3)nc21 [Savolitinib]; conditions: max 1 µM
# Procedure, shortened: as §1
# SN-38 = compound: CCc1c2c(nc3ccc(O)cc13)-c1cc3c(c(=O)n1C2)COC(=O)[C@]3(O)CC [SN-38]; conditions: max 0.3 µM
# Procedure, shortened: as §1
# Lapatinib = compound: CS(=O)(=O)CCNCc1ccc(-c2ccc3ncnc(Nc4ccc(OCc5cccc(F)c5)c(Cl)c4)c3c2)o1 [Lapatinib]; conditions: max 10 µM
# Procedure, shortened: as §1
# Crizotinib = compound: C[C@@H](Oc1cc(-c2cnn(C3CCNCC3)c2)cnc1N)c1c(Cl)ccc(F)c1Cl [Crizotinib]; conditions: max 10 µM
# Procedure, shortened: as §1
# AZD8186 = compound: C[C@@H](Nc1cc(F)cc(F)c1)c1cc(C(=O)N(C)C)cc2c(=O)cc(N3CCOCC3)oc12 [AZD8186]; conditions: max 3 µM
# Procedure, shortened: as §1
# AZD1775 = compound: C=CCn1c(=O)c2cnc(Nc3ccc(N4CCN(C)CC4)cc3)nc2n1-c1cccc(C(C)(C)O)n1 [AZD1775]; conditions: max 3 µM
# Procedure, shortened: as §1
# AZD2811 = compound: CCN(CCO)CCCOc1ccc2c(Nc3cc(CC(=O)Nc4cccc(F)c4)[nH]n3)ncnc2c1 [AZD2811]; conditions: max 1 µM
# Procedure, shortened: as §1
# Olaparib = compound: O=C(c1cc(Cc2n[nH]c(=O)c3ccccc23)ccc1F)N1CCN(C(=O)C2CC2)CC1 [Olaparib]; conditions: max 10 µM
# Procedure, shortened: as §1
# Alisertib = compound: COc1cc(Nc2ncc3c(n2)-c2ccc(Cl)cc2C(c2c(F)cccc2OC)=NC3)ccc1C(=O)O [Alisertib]; conditions: max 10 µM
# Procedure, shortened: as §1
# AZD0156 = compound: CN(C)CCCOc1ccc(-c2ccc3ncc4c(c3c2)n(C2CCOCC2)c(=O)n4C)cn1 [AZD0156]; conditions: max 3 µM
# Procedure, shortened: as §1
Cell Line,"IC50, cell viability 72 h (SG3199) [µM]","IC50, cell viability 72 h (Palbociclib) [µM]","IC50, cell viability 72 h (AZD6738) [µM]","IC50, cell viability 72 h (AZD5991) [µM]","IC50, cell viability 72 h (AZD4320) [µM]","IC50, cell viability 72 h (Gefitinib) [µM]","IC50, cell viability 72 h (Dasatinib) [µM]","IC50, cell viability 72 h (AZD1390) [µM]","IC50, cell viability 72 h (AZD5153) [µM]","IC50, cell viability 72 h (MK-2206) [µM]","IC50, cell viability 72 h (Doxorubicin) [µM]","IC50, cell viability 72 h (Taselisib) [µM]","IC50, cell viability 72 h (Selumetinib) [µM]","IC50, cell viability 72 h (Venetoclax) [µM]","IC50, cell viability 72 h (AZD7648) [µM]","IC50, cell viability 72 h (Capivasertib) [µM]","IC50, cell viability 72 h (Trametinib) [µM]","IC50, cell viability 72 h (Prexasertib) [µM]","IC50, cell viability 72 h (Savolitinib) [µM]","IC50, cell viability 72 h (SN-38) [µM]","IC50, cell viability 72 h (Lapatinib) [µM]","IC50, cell viability 72 h (Crizotinib) [µM]","IC50, cell viability 72 h (AZD8186) [µM]","IC50, cell viability 72 h (AZD1775) [µM]","IC50, cell viability 72 h (AZD2811) [µM]","IC50, cell viability 72 h (Olaparib) [µM]","IC50, cell viability 72 h (Alisertib) [µM]","IC50, cell viability 72 h (AZD0156) [µM]"
HGC-27 (Gastric Carcinoma),> 0.001,3.21,2.84,> 1,> 1,> 10,0.349,> 0.3,0.0548,0.501,0.146,0.0611,> 10,> 1,> 10,0.346,> 1,0.0768,> 1,0.0146,4.94,3.25,2.38,2.24,0.0941,> 10,0.164,> 3
HSC-4 (Oral Cavity Carcinoma),> 0.001,> 10,7.28,> 1,> 1,> 10,> 2,> 0.3,> 1,> 10,> 1,> 10,> 10,> 1,> 10,> 10,> 1,0.205,> 1,0.0112,> 10,> 10,> 3,> 3,> 1,> 10,> 10,> 3
NUGC-3 (Gastric Carcinoma),> 0.001,> 10,6.49,> 1,> 1,> 10,> 2,> 0.3,> 1,> 10,0.128,3.75,> 10,> 1,> 10,> 10,0.592,0.193,> 1,0.00505,5.31,> 10,> 3,0.729,> 1,> 10,> 10,> 3
OSC-20 (Oral Cavity Carcinoma),> 0.001,> 10,> 10,> 1,> 1,> 10,> 2,> 0.3,> 1,–,> 1,9.68,> 10,> 1,> 10,> 10,> 1,0.458,> 1,0.0404,> 10,> 10,> 3,1.22,> 1,> 10,> 10,> 3
OVCAR-4 (Ovarian Carcinoma),> 0.001,> 10,6.93,> 1,> 1,> 10,> 2,> 0.3,> 1,–,> 1,> 10,> 10,> 1,> 10,> 10,> 1,0.0574,> 1,> 0.3,> 10,> 10,> 3,> 3,> 1,> 10,> 10,> 3
PWR-1E (Non-Cancerous),> 0.001,> 10,2.82,> 1,> 1,> 10,0.371,> 0.3,0.343,> 10,> 1,7.81,> 10,> 1,> 10,> 10,> 1,0.0281,> 1,0.013,> 10,8.5,> 3,0.525,0.827,> 10,1.51,> 3
SCC-15 (Oral Cavity Carcinoma),> 0.001,> 10,> 10,> 1,> 1,> 10,1.36,> 0.3,> 1,–,> 1,2,> 10,> 1,> 10,> 10,> 1,0.682,> 1,0.0661,> 10,> 10,> 3,> 3,> 1,> 10,> 10,> 3
SU8686 (Pancreatic Carcinoma),> 0.001,> 10,> 10,> 1,> 1,> 10,> 2,> 0.3,> 1,–,> 1,> 10,> 10,> 1,> 10,> 10,> 1,0.489,> 1,> 0.3,> 10,> 10,> 3,> 3,> 1,> 10,> 10,> 3
TE-1 (Esophageal Squamous Cell Carcinoma),> 0.001,> 10,> 10,> 1,> 1,> 10,0.393,> 0.3,> 1,–,> 1,7.85,> 10,> 1,> 10,> 10,> 1,0.131,> 1,0.157,> 10,> 10,> 3,2.22,> 1,> 10,6.09,> 3
VA-ES-BJ (Other Solid Carcinomas),> 0.001,> 10,4.58,> 1,> 1,> 10,> 2,> 0.3,> 1,–,0.464,4.5,> 10,> 1,> 10,> 10,> 1,0.118,> 1,0.0188,> 10,> 10,> 3,3,> 1,> 10,4.77,> 3
